Measurements taken from patent publication US20230146675A1, “PYRIMIDO[5,4-d]PYRIMIDINE DERIVATIVES AS ENT INHIBITORS FOR THE TREATMENT OF CANCERS, AND COMBINATION THEREOF WITH ADENOSINE RECEPTOR ANTAGONISTS” (ITEOS BELGIUM SA, priority 2020, published 2023).

Biological target: T1, human ENT1 (Homo sapiens, UniProt Q99808)
T1 sequence (Q99808 1-456): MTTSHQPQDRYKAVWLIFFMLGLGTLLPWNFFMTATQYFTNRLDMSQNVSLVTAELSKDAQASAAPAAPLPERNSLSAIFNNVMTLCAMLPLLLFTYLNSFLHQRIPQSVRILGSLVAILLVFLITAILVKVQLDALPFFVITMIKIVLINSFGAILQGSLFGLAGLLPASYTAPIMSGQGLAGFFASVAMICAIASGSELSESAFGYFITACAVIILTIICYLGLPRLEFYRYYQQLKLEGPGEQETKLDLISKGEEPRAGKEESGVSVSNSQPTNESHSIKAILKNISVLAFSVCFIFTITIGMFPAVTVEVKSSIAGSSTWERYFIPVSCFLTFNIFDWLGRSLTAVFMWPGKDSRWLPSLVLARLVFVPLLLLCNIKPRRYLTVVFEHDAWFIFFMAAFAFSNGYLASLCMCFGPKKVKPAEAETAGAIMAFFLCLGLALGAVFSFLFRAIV
Experiment: ENT1 binding assay (competition with Sahenta-DY647 on JAR cells)
Design: JAR cells expressing ENT1 were bought from ATCC; host or cells: JAR cells
Settings: binned IC50
Description: Purpose. […] By measuring the fluorescence at the end of the assay we could assess the binding potency of the compounds of the present invention.
JAR cells were resuspended in the described buffer. Compounds of the present invention and Sahenta-DY647 were diluted 200× in the described buffer.
The total volume of the reaction was 100 μL (50 μL of cells, 25 μL of the compounds of the present invention and 25 μL of Sahenta-DY647) in a 96 well plate, U-bottom (Greiner®, #650-180). The plates were washed 2× by centrifugation (4 min, 400 rcf at 4° C.) in the same buffer.

Structure (SMILES) | IC50 [µM]
COCCN(CCOC)c1nc(N2CC(O)(C(F)(F)F)C2)c2nc(N(CCOC)CCOC)nc(N3CCn4ncnc4C3)c2n1 [Compound 193, 1-(2,6-bis(bis(2-methoxyethyl)amino)-8-(5,6-dihydro-[1,2,4]triazolo[1,5-a]pyrazin-7(8H)-yl)pyrimido[5,4-d]pyrimidin-4-yl)-3-(trifluoromethyl)azetidin-3-ol] | 0.1 to 0.5
COCCN(CCOC)c1nc(N2CCN(c3ncn(C)n3)CC2)c2nc(N(CCOC)CCOC)nc(NCC(C)C)c2n1 [Compound 219, N4-isobutyl-N2,N2,N6,N6-tetrakis(2-methoxyethyl)-8-(4-(1-methyl-1H-1,2,4-triazol-3-yl)piperazin-1-yl)pyrimido[5,4-d]pyrimidine-2,4,6-triamine] | 0.1 to 0.5
COCCCCNc1nc(N(CCOC)CCOC)nc2c(N3CCC(OC)CC3)nc(N(CCOC)CCOC)nc12 [Compound 181, N4-(4-methoxybutyl)-N2,N2,N6,N6-tetrakis(2-methoxyethyl)-8-(4-methoxypiperidin-1-yl)pyrimido[5,4-d]pyrimidine-2,4,6-triamine] | 0.5 to 1
COCCN(CCOC)c1nc(N2CCC(OC)CC2)c2nc(N(CCOC)CCOC)nc(NCc3cnccn3)c2n1 [Compound 84, N2,N2,N6,N6-tetrakis(2-methoxyethyl)-8-(4-methoxypiperidin-1-yl)-N4-(pyrazin-2-ylmethyl)pyrimido[5,4-d]pyrimidine-2,4,6-triamine] | 0.5 to 1
COCCN(CCOC)c1nc(N2CCC(OC)CC2)c2nc(N(CCOC)CCOC)nc(OCc3cnn(C(C)C)c3)c2n1 [Compound 164, 4-((1-isopropyl-1H-pyrazol-4-yl)methoxy)-N2,N2,N6,N6-tetrakis(2-methoxyethyl)-8-(4-methoxypiperidin-1-yl)pyrimido[5,4-d]pyrimidine-2,6-diamine] | 0.5 to 1
COCCN(CCOC)c1nc(N2CCn3ncnc3C2)c2nc(N(CCOC)CCOC)nc(N3CCn4ncnc4C3)c2n1 [Compound 9, 4,8-bis(5,6-dihydro-[1,2,4]triazolo[1,5-a]pyrazin-7(8H)-yl)-N2,N2,N6,N6-tetrakis(2-methoxyethyl)pyrimido[5,4-d]pyrimidine-2,6-diamine] | 0.1 to 0.5
COCCN(CCOC)c1nc(N2CCN(c3ncn(C)n3)CC2)c2nc(N(CCOC)CCOC)nc(N(C)Cc3cccc(Cl)c3)c2n1 [Compound 242, N4-(3-chlorobenzyl)-N2,N2,N6,N6-tetrakis(2-methoxyethyl)-N4-methyl-8-(4-(1-methyl-1H-1,2,4-triazol-3-yl)piperazin-1-yl)pyrimido[5,4-d]pyrimidine-2,4,6-triamine] | 0.5 to 1
COCCN(CCOC)c1nc(N2CCN(c3ncn(C)n3)CC2)c2nc(N(CCOC)CCOC)nc(NCc3ccc(F)c(C#N)c3)c2n1 [Compound 225, 5-(((2,6-bis(bis(2-methoxyethyl)amino)-8-(4-(1-methyl-1H-1,2,4-triazol-3-yl)piperazin-1-yl)pyrimido[5,4-d]pyrimidin-4-yl)amino)methyl)-2-fluorobenzonitrile] | < 0.1
COCCN(CCOC)c1nc(N2CCC(OC)CC2)c2nc(N(CCOC)CCOC)nc(NCCc3cccnc3)c2n1 [Compound 63, N2,N2,N6,N6-tetrakis(2-methoxyethyl)-8-(4-methoxypiperidin-1-yl)-N4-(2-(pyridin-3-yl)ethyl)pyrimido[5,4-d]pyrimidine-2,4,6-triamine] | 0.1 to 0.5
COCCN(CCOC)c1nc(N2CCN(c3ncn(C)n3)CC2)c2nc(N(CCOC)CCOC)nc(NCc3cccc(F)c3)c2n1 [Compound 220, N4-(3-fluorobenzyl)-N2,N2,N6,N6-tetrakis(2-methoxyethyl)-8-(4-(1-methyl-1H-1,2,4-triazol-3-yl)piperazin-1-yl)pyrimido[5,4-d]pyrimidine-2,4,6-triamine] | < 0.1

Now from value to compound:

IC50 [µM] | Structure (SMILES)
0.1 to 0.5 | COCCN(CCOC)c1nc(N2CCC(OC)CC2)c2nc(N(CCOC)CCOC)nc(NCC(C)C)c2n1 [Compound 127, N4-isobutyl-N2,N2,N6,N6-tetrakis(2-methoxyethyl)-8-(4-methoxypiperidin-1-yl)pyrimido[5,4-d]pyrimidine-2,4,6-triamine]
0.1 to 0.5 | COCCN(CCOC)c1nc(N2CCN(C)C(=O)C2)c2nc(N(CCOC)CCOC)nc(N(C)Cc3cccc(C(N)=O)c3)c2n1 [Compound 240, 3-(((2,6-bis(bis(2-methoxyethyl)amino)-8-(4-methyl-3-oxopiperazin-1-yl)pyrimido[5,4-d]pyrimidin-4-yl)(methyl)amino)methyl)benzamide]
< 0.1 | COCCN(CCOC)c1nc(N2CCN(C)C(=O)C2)c2nc(N(CCOC)CCOC)nc(NCc3cccc(Cl)c3)c2n1 [Compound 208, 4-(2,6-bis(bis(2-methoxyethyl)amino)-8-((3-chlorobenzyl)amino)pyrimido[5,4-d]pyrimidin-4-yl)-1-methylpiperazin-2-one]
0.1 to 0.5 | COCCN(CCOC)c1nc(N2CCC(OC)CC2)c2nc(N(CCO)CCO)nc(N3CC(=O)N(C)C(C)C3)c2n1 (stereo not drawn) [Compound 309, 4-(2-(bis(2-hydroxyethyl)amino)-6-(bis(2-methoxyethyl)amino)-8-(4-methoxypiperidin-1-yl)pyrimido[5,4-d]pyrimidin-4-yl)-1,6-dimethylpiperazin-2-one]
0.5 to 1 | COCCN(CCOC)c1nc(N2CCC(OC)CC2)c2nc(N(CCOC)CCOC)nc(NCc3cnco3)c2n1 [Compound 60, N2,N2,N6,N6-tetrakis(2-methoxyethyl)-8-(4-methoxypiperidin-1-yl)-N4-(oxazol-5-ylmethyl)pyrimido[5,4-d]pyrimidine-2,4,6-triamine]
< 0.1 | COCCN(Cc1cc(OC)c(OC)c(OC)c1)c1nc(N2CCN(C)C(=O)C2)c2nc(N(CCOC)CCOC)nc(N3CCC(OC)CC3)c2n1 [Compound 268, 4-(6-(bis(2-methoxyethyl)amino)-2-((2-methoxyethyl)(3,4,5-trimethoxybenzyl)amino)-8-(4-methoxypiperidin-1-yl)pyrimido[5,4-d]pyrimidin-4-yl)-1-methylpiperazin-2-one]
< 0.1 | COCCN(Cc1ccc(C(=O)O)c(C(F)(F)F)c1)c1nc(N2CCN(C)C(=O)C2)c2nc(N(CCOC)CCOC)nc(N3CCC(OC)CC3)c2n1 [Compound 339, 4-(((6-(bis(2-methoxyethyl)amino)-8-(4-methoxypiperidin-1-yl)-4-(4-methyl-3-oxopiperazin-1-yl)pyrimido[5,4-d]pyrimidin-2-yl)(2-methoxyethyl)amino)methyl)-2-(trifluoromethyl)benzoic acid]
< 0.1 | COCCN(Cc1ccc(OC)c(OC)c1OC)c1nc(N2CCC(OC)CC2)c2nc(N(CCO)CCO)nc(N3CCN(C)C(=O)C3)c2n1 [Compound 304, 4-(2-(bis(2-hydroxyethyl)amino)-6-((2-methoxyethyl)(2,3,4-trimethoxybenzyl)amino)-8-(4-methoxypiperidin-1-yl)pyrimido[5,4-d]pyrimidin-4-yl)-1-methylpiperazin-2-one]
0.5 to 1 | COCCN(CCOC)c1nc(N2CCN(C)C(=O)C2)c2nc(N3CCn4cncc4C3)nc(N3CCC(OC)CC3)c2n1 [Compound 298, 4-(2-(bis(2-methoxyethyl)amino)-6-(5,6-dihydroimidazo[1,5-a]pyrazin-7(8H)-yl)-8-(4-methoxypiperidin-1-yl)pyrimido[5,4-d]pyrimidin-4-yl)-1-methylpiperazin-2-one]
0.5 to 1 | COCCN(CCOC)c1nc(N2CCC(OC)CC2)c2nc(N3CCc4[nH]cnc4C3)nc(N3CCN(C)C(=O)C3)c2n1 [Compound 290, 4-(6-(bis(2-methoxyethyl)amino)-8-(4-methoxypiperidin-1-yl)-2-(1,4,6,7-tetrahydro-5H-imidazo[4,5-c]pyridin-5-yl)pyrimido[5,4-d]pyrimidin-4-yl)-1-methylpiperazin-2-one]
< 0.1 | COCCN(CCOC)c1nc(N2CCC(OC)CC2)c2nc(N(CCOC)CCOC)nc(OCc3cccc(Cl)c3)c2n1 [Compound 155, 4-((3-chlorobenzyl)oxy)-N2,N2,N6,N6-tetrakis(2-methoxyethyl)-8-(4-methoxypiperidin-1-yl)pyrimido[5,4-d]pyrimidine-2,6-diamine]
< 0.1 | COCCN(CCOC)c1nc(N2CCN(C)C(=O)C2)c2nc(N(CCOC)CCOC)nc(N(C)Cc3cccc(Cl)c3)c2n1 [Compound 234, 4-(2,6-bis(bis(2-methoxyethyl)amino)-8-((3-chlorobenzyl)(methyl)amino)pyrimido[5,4-d]pyrimidin-4-yl)-1-methylpiperazin-2-one]
< 0.1 | COCCN(CCOC)c1nc(N2CCN(C)C(=O)C2)c2nc(N(CCOC)CCOC)nc(NCc3ccccc3)c2n1 [Compound 190, 4-(8-(benzylamino)-2,6-bis(bis(2-methoxyethyl)amino)pyrimido[5,4-d]pyrimidin-4-yl)-1-methylpiperazin-2-one]
0.1 to 0.5 | COCCN(CCOC)c1nc(N2CCN(C)C(=O)C2)c2nc(N3CCn4cnnc4C3)nc(N3CCC(OC)CC3)c2n1 [Compound 299, 4-(2-(bis(2-methoxyethyl)amino)-6-(5,6-dihydro-[1,2,4]triazolo[4,3-a]pyrazin-7(8H)-yl)-8-(4-methoxypiperidin-1-yl)pyrimido[5,4-d]pyrimidin-4-yl)-1-methylpiperazin-2-one]
